Source: paper PMC8010149, “A Therapeutic Strategy to Combat HIV-1 Latently Infected Cells With a Combination of Latency-Reversing Agents Containing DAG-Lactone PKC Activators” (Frontiers in Microbiology, 2021)

Legend:
[1] = tested on: A3.01 cells; test: Active caspase-3 by flow cytometry in A3.01 cells; format: cell-based; details: 10 μM, 24 h
[2] = tested on: HIV-1 in CD4+ T cells from HIV-1-infected individuals; test: Ex vivo reactivation, intracellular HIV-1 mRNA in primary CD4+ T cells from HIV-1-infected individuals; format: cell-based; details: 10 μM YSE028, 24 h, seven individuals
Procedure: Primary cells were isolated from seven HIV-1^+ individuals, and ex vivo reactivation experiments were conducted as previously described ([Matsuda et al., 2019]). In brief, peripheral blood samples were collected from HIV-1-infected participants receiving cART for at least 5 years (Table 1). All subjects maintained a low viral load (<20 copies/ml, except for occasional “blips”) during therapy. CD4^+ T cell counts in peripheral blood samples ranged from 477 to 992 cells/mm^3 (average: 631 cells/mm^3), and plasma viral loads were <20 copies/ml (except for one participant whose viral load was 22 copies/ml) as measured by quantitative PCR (qPCR; COBAS AmpliPrep/COBAS TaqMan HIV-1 Test version 2.0; Roche Diagnostics, Basel, Switzerland) at the time of study enrollment. The Ethics Committee at the National Center for Global Health and Medicine approved this study (NCGM-G-002259-00), and each patient provided written informed consent. […] The number of HIV-1 RNA copies was calculated using a standard curve obtained from serially diluted HIV-1pNL4-3 plasmid, and normalized values [HIV-1 RNA copies/input RNA (ng)] for each drug were compared to those without drug treatment. The relative increase in HIV-1 RNA levels in the presence of each drug or combination was then determined.

## CCCC(CCC)C(=O)OCC1(CO)CC(=C(C)C)C(=O)O1 (centres unmarked) [YSE028]
[1]
  caspase-3 activation: 5.81%
[2]
  HIV-1 mRNA compared to no drug control: 1.66 fold
